Measurements taken from patent publication US20180340008A1, “ANTIBIOTIC OLIGOPEPTIDE MIMETICS” (priority 2017, published 2018).
Where a name gives a salt, the structure may show the parent alone. Non-standard residues stand in square brackets, D forms with d. Residues, ends and D or L forms follow the SMILES beside them. ξ: configuration not given here. *: point of attachment. ξW = NC(Cc1c[nH]c2ccccc12)C(=O)O; NHOH = ON*

Test system: E. coli (ATTC 8739)
Assay: Zone of inhibition test in Petri dish
Format: cell-based
Experimental: Compound A was tested against L-phenylalanine-(S)-2-amino-N-hydroxy-4-(methylthio)butanamide hydrochloride (Example 3) in a side-by-side comparison in a conventional zone of inhibition test. In this test, both compounds were compared at various concentrations against E. coli (ATTC 8739) grown in a Petri dish using the antibiotic kanamycin as a control.

| SMILES | concentration at which a zone of inhibition was shown (Petri dish, kanamycin control, FIG. 1A/1B) [µg] | strength of zone of inhibition compared with cpd. A at 50 μg (at 12.5 μg) | strength of zone of inhibition (at 50 μg) |
| --- | --- | --- | --- |
| CSCC[C@H](NC(=O)C(N)Cc1c[nH]c2ccccc12)C(=O)NO (stereo partly drawn) [Example 3, L-Tryptophan-(S)-2-amino-N-hydroxy-4-(methylthio)butanamide hydrochloride] (H-[ξW]-Met-{NHOH}) | 12.5 | substantially stronger | – |
| CSCC[C@H](NC(=O)CN)C(=O)NO [Compound A, reference compound] | – | – | quite weak |
